Square brackets hold non-standard residues; d marks the D form. Ends that are not written are not given here. Lys(Me3) = C[N+](C)(C)CCCC[C@H](N)C(=O)O
System: KDM7A (KDM7A38–480)
Experiment: MALDI-TOF MS demethylation activity assay, KDM7A
Assay type: biochemical, human
Set-up: key to demethylation activity on methylated H1.4 peptide: 🟢: Indicates that clear demethylation activity was observed; 🟡: Indicates that low level demethylation activity was observed (<10% conversion after 1 h); 🔴: Indicates no activity under the stated conditions (1 μM KDM, 10 μM peptide); 🟡*: *Indicates demethylation activity was only observed with 5 μM KDM
Details: peptide as substrate; MALDI-TOF MS; 1 μM KDM, 10 μM peptide, 50 mM HEPES pH 7.5, Fe(II) 10 μM, ascorbate 100 μM, 2OG 200 μM, 1 mM TCEP, 1 h at 37 °C
Method: Recombinant proteins (1 μM) were incubated with peptides (10 μM, sequences are given in Table S1) in 50 mM HEPES, pH 7.5 with addition of Fe(II) ammonium sulfate (10 μM), sodium ascorbate (100 μM) and 2‐oxoglutaric acid (200 μM). Reactions with KDM3A and KDM7A also contained 1 mM tris(2‐carboxyethyl)phosphine hydrochloride. No enzyme reactions were included as negative controls. Reactions were incubated for 1 h at 37 °C before being quenched with 1 : 1 (v/v) methanol. Analysis was carried out by MALDI‐TOF MS (Bruker, Billerica, MA, USA), with demethylation observed as mass shifts of 14 Da.
The propensity of human JmjC KDMs to catalyse demethylation at H1.4K26 was investigated using recombinant forms of the catalytic domains of representatives of each human JmjC KDM subfamily (KDM2‐7) and fragment peptides (Table S1) 37. Three peptides with identical sequences, corresponding to residues 18–32 of histone H1.4 (H2N‐[…]‐CONH2), but containing either a N ^ε‐tri‐, di‐ or monomethyllysine at K26 were synthesised (Fig. 1B and Table S1). Activity assays monitoring JmjC KDM‐catalysed demethylation of the peptides were then carried out; samples were prepared containing each peptide, 2‐oxoglutarate (2OG), ferrous iron, ascorbate and individual representatives from each JmjC KDM subfamily (KDM2A 38, KDM3A 21, KDM4E 22, KDM5C 39, 40, KDM6B 41, KDM7A 42).
N ^ε‐Trimethylated H3K4 binds to the plant homeobox domain of KDM7B, targeting the N ^ε‐dimethyllysine at H3K9 to the catalytic domain, and thus promoting demethylation 29, 44. To test whether similar targeting may occur with H1.4, promoting activity at H1.4K26, an H1.4 peptide was synthesised containing di‐N ^ε‐methyllysine at K26 and tri‐N ^ε‐methyllysine at K21 (i.e. at the equivalent position in the sequence to K4 in the H3 peptide, Fig. 1B, Table S1). Monomethylation at H1.4K21 has previously been observed by proteomic mass spectrometry 45. With the aim of enhancing activity, the enzyme concentration was increased from 1 μM to 5 μM, and time course analyses were conducted with both KDM7A and KDM7B, both with the new peptide (H1.4(18–32)K21me3K26me2) and the H1.4 peptides methylated only at K26 (Fig. 2B). […] Thus, it appears unlikely that N ^ε‐trimethylation at H1.4K21 promotes demethylation at H1.4K26 by KDM7B.

TPVKKKAR[Lys(Me3)]SAGAAK [H1.4(18–32)K26me3, peptide of residues 18–32 of histone H1.4 with N ε-trimethyllysine at K26]
demethylation activity on methylated H1.4 peptide: 🔴

— PMC6220849, “Mechanistic and structural studies of KDM‐catalysed demethylation of histone 1 isotype 4 at lysine 26” (Febs Letters, 2018)
